The nature of series [1]: Olsalazine release from pressed pellets under simulated gastrointestinal conditions. Type of series: physicochemical. Here is the method: To evaluate the potential utility of Ca(H2olz).xH2O coordination solids in the treatment of ulcerative colitis (x=4, 2, and 0 for 1D, 2D, and 3D materials, respectively), each material was tested for drug release in comparison with Na2(H2olz), which is the salt used in the commercial formulation (available as Dipentum®). Each material was pressed into a pellet and exposed to solutions that mimic the pH of the stomach, small intestine, and colon. The pH and composition of the release medium was changed by addition of buffers in accordance to the expected transit times of a pill through the gastrointestinal tract: the first two hours were held at pH 1.1, the next two hours at pH 6.0, and the final six hours at pH 7.3. The vessels containing the pellet in release media were shaken at 60 rpm at 37° C. to simulate the motion and temperature of the body.
Sample pellets were prepared from pure material without binders or other agents typically used for pill preparation in the pharmaceutical industry. This was done in order to probe the properties of each material without influence from any excipients. Due to this method of preparation, however, pellets were susceptible to disintegration, which can accelerate the observed dissolution rates. […] The variability in pellet integrity likely contributed to the large observed standard deviation.
FIG. 3 is a graph of the release of olsalazine from Na2(H2olz) (circles) and Ca(H2olz).xH2O materials under simulated gastrointestinal conditions (x=4, 2, 0, denoted by squares, triangles, and diamonds, respectively). Error bars represent standard deviation across three independent data sets, where the quantity of olsalazine in solution was measured spectroscopically (λ=360 nm). The release media were changed throughout the study to emulate the typical pH and transit times of a pill passing through the stomach (pH 1.1, 2 h), small intestine (pH 6.0, 2 h), and colon (pH 7.3, 6 h).

The nature of series [2]: Content of active pharmaceutical ingredient by weight. Format: physicochemical.
For series [3] the following is noted: treatment of ulcerative colitis; cited from earlier work.

Some results are limits rather than exact numbers.

Results on 1 compound are retold here after US11065264B2, “Metal-olsalazine coordination polymers for medical applications” (THE REGENTS OF THE UNIVERSITY OF CALIFORNIA, priority 2016, dated 2021).

With `O=C(O)c1cc(/N=N/c2ccc(O)c(C(=O)O)c2)ccc1O` [Na2(H2olz), olsalazine disodium], the “amount of drug (olsalazine) released at the four-hour time point” value in series [1] (pellet without excipients, pH 1.1 2 h then pH 6.0 2 h, 37° C., 60 rpm, absorbance 360 nm) was “over 90%”. In addition, the “pellet disintegration in contact with the release solution” value in series [1] (pellets of pure material without binders) is reported as “partially disintegrated”. In addition, the “rate of olsalazine release/dissolution, Na2(H2olz) compared with Ca(H2olz) materials” value in series [1] (simulated gastrointestinal environment, pH 6.0 and above) is reported as “dissolved more rapidly”. Further, the “percentage of the active pharmaceutical ingredient (olsalazine) by weight” value in series [2] came out at 79%. In addition, in series [3], the “patients discontinuing treatment because of diarrhea” value is “over 10%” and the “patients experiencing diarrhea as a side effect” value is recorded as ≤ 35%.
